Assay results taken from US20230167073A1 (Teijin Pharma Limited, priority 2020, published 2023).

What follows are molecules tested against T1, Human TRPC6 (Homo sapiens, UniProt Q9Y210) (assay: Evaluation of TRPC6 channel inhibitory activity (1), FLIPR Calcium 5 Assay Kit, OAG stimulation (Compound Nos. 1-1293)). Settings: Human TRPC6 stably-expressing cells, OAG 30 μM, FLIPR Calcium 5 Assay Kit; read-out: Inhibitory activity (pIC50 class) (converted).
T1 construct: expressed in transfected cells
T1 sequence (Q9Y210 1-931): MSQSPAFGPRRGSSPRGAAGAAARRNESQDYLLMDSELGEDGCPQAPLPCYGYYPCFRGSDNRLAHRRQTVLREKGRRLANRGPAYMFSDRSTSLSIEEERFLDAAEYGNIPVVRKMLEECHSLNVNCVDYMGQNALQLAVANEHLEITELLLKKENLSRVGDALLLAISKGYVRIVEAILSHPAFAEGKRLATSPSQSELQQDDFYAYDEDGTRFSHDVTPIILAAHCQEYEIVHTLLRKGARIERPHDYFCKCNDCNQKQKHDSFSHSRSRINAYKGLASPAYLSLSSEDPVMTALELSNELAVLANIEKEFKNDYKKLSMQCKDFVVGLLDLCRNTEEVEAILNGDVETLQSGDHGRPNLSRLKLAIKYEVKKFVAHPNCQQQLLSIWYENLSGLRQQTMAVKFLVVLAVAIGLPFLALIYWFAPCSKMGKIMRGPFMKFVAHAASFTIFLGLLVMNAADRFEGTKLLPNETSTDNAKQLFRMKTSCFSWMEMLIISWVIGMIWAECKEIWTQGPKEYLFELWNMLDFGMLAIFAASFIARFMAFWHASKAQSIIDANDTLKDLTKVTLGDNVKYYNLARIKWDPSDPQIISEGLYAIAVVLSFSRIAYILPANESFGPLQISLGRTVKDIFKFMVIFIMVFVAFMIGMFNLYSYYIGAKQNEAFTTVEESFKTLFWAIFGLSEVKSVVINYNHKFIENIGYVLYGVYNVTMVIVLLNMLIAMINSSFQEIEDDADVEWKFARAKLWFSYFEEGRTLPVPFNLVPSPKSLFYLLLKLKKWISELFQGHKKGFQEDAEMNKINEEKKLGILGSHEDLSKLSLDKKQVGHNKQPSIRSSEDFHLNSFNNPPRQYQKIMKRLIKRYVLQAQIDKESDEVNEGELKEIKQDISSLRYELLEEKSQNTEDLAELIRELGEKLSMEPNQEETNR
Type: cell-based
Summary of the method: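 TRPC6 (human) stable cells, 24 h culture; Ca5 no-wash dye + probenecid 30 min; cpd 20 min; OAG 30 μM final; ΔF (pre-cpd min to post-OAG max); 0%/100% = no cpd / no cpd + no OAG; 4PL → pIC50, binned +/++/+++.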
For CCN(CC(F)F)c1cc(Oc2cc(F)ccc2-c2ncc(CN)cn2)n(C)n1 [compound 994, 5-[2-[5-(aminomethyl)pyrimidin-2-yl]-5-fluorophenoxy]-N-(2,2-difluoroethyl)-N-ethyl-1 methylpyrazole-3-amine], the IC50 was 10 to 1000 nM. With Cn1nc(N2CCCC2)cc1Oc1cc(F)ccc1-c1ncc(CN)cn1 [compound 995, [2-[4-fluoro-2-(2-methyl-5-pyrrolidin-1-ylpyrazol-3-yl)oxyphenyl]pyrimidin-5-yl]methanamine] the IC50 was 10 to 1000 nM. With Cn1nc(N2CCCC2)cc1Oc1cc(F)ccc1-c1ccc(CN)cn1 [compound 996, [6-[4-fluoro-2-(2-methyl-5-pyrrolidin-1-ylpyrazol-3-yl)oxyphenyl]pyridin-3-yl]methanamine] the IC50 was less than 10 nM. CN(C)c1cc(Oc2cc(F)ccc2-c2ncc(CN)cn2)n(C)n1 [compound 997, 5-[2-[5-(aminomethyl)pyrimidin-2-yl]-5-fluorophenoxy]-N,N,1 trimethylpyrazole-3-amine] gave an IC50 of 10 to 1000 nM. CN(C)c1cc(Oc2cc(F)ccc2-c2ccc(CN)cn2)n(C)n1 [compound 998, 5-[2-[5-(aminomethyl)pyridin-2-yl]-5-fluorophenoxy]-N,N,1-trimethylpyrazole-3-amine] gave an IC50 of 10 to 1000 nM. CN(C)c1cc(Oc2cc(F)ccc2-c2ncc(CCN)cn2)n(C)n1 [compound 999, 5-[2-[5-(2-aminoethyl)pyrimidin-2-yl]-5-fluorophenoxy]-N,N,1-trimethylpyrazole-3-amine] showed an IC50 of 10 to 1000 nM. CN(C)c1cc(Oc2cc(F)ccc2-c2ccc(CCN)cn2)n(C)n1 [compound 1000, 5-[2-[5-(2-aminoethyl)pyridin-2-yl]-5-fluorophenoxy]-N,N,1-trimethylpyrazole-3-amine] was tested, and the IC50 was less than 10 nM. Cc1nc(Oc2cc(F)ccc2-c2ccc(CCN)cn2)cc(N2CCOCC2)n1 [compound 1001, 2-[6-[4-fluoro-2-(2-methyl-6-morpholin-4-ylpyrimidin-4-yl)oxyphenyl]pyridin-3-yl]ethanamine] was tested, and the IC50 was less than 10 nM. With Cc1nc(Oc2cc(F)ccc2-c2ncc(CN)cn2)cc(N2CCOCC2)n1 [compound 1002, [2-[4-fluoro-2-(2-methyl-6-morpholin-4-ylpyrimidin-4-yl)oxyphenyl]pyrimidin-5-yl]methanamine] the IC50 was greater than 1000 nM. In the case of Cc1nc(Oc2cc(F)ccc2-c2ccc(CN)cn2)cc(N2CCOCC2)n1 [compound 1003, [6-[4-fluoro-2-(2-methyl-6-morpholin-4-ylpyrimidin-4-yl)oxyphenyl]pyridin-3-yl]methanamine], the IC50 is reported as 10 to 1000 nM. In the case of NCCc1cnc(-c2ccc(F)cc2Oc2cnn(-c3ccccn3)c2)nc1 [compound 1004, 2-[2-[4-fluoro-2-(1-pyridin-2-ylpyrazol-4-yl)oxyphenyl]pyrimidin-5-yl]ethanamine], the IC50 is reported as 10 to 1000 nM. NCCc1cnc(-c2ccc(F)cc2Oc2cnn(CC(F)F)c2)nc1 [compound 1005, 2-[2-[2-[1-(2,2-difluoroethyl)pyrazol-4-yl]oxy-4-fluorophenyl]pyrimidin-5-yl]ethanamine] was tested, and the IC50 was greater than 1000 nM. Work on NCCc1ccc(-c2ccc(F)cc2Oc2cnnc(N3CCOCC3)c2)nc1 [compound 1006, 2-[6-[4-fluoro-2-(6-morpholin-4-ylpyridazin-4-yl)oxyphenyl]pyridin-3-yl]ethanamine] yielded an IC50 of 10 to 1000 nM. Work on Cn1nc(C2CCOCC2)cc1Oc1cc(F)ccc1-c1ncc(CN)cn1 [compound 1007, [2-[4-fluoro-2-[2-methyl-5-(oxan-4-yl)pyrazol-3-yl]oxyphenyl]pyrimidin-5-yl]methanamine] yielded an IC50 of 10 to 1000 nM. Work on Cn1nc(C2CCOCC2)cc1Oc1cc(F)ccc1-c1ccc(CN)cn1 [compound 1008, [6-[4-fluoro-2-[2-methyl-5-(oxan-4-yl)pyrazol-3-yl]oxyphenyl]pyridin-3-yl]methanamine] yielded an IC50 of 10 to 1000 nM. With Cn1nc(C2CCOCC2)cc1Oc1cc(F)ccc1-c1ncc(CCN)cn1 [compound 1009, 2-[2-[4-fluoro-2-[2-methyl-5-(oxan-4-yl)pyrazol-3-yl]oxyphenyl]pyrimidin-5-yl]ethanamine] the IC50 was 10 to 1000 nM. Molecule Cn1nc(C2CCOCC2)cc1Oc1cc(F)ccc1-c1ccc(CCN)cn1 [compound 1010, 2-[6-[4-fluoro-2-[2-methyl-5-(oxan-4-yl)pyrazol-3-yl]oxyphenyl]pyridin-3-yl]ethanamine] has an IC50 of less than 10 nM. Work on CC(C)c1cc(Oc2cc(F)ccc2-c2ccc(CN)cn2)n(C)n1 [compound 1011, [6-[4-fluoro-2-(2-methyl-5-propan-2-ylpyrazol-3-yl)oxyphenyl]pyridin-3-yl]methanamine] yielded an IC50 of less than 10 nM. For CC(C)c1cc(Oc2cc(F)ccc2-c2ncc(CN)cn2)n(C)n1 [compound 1012, [2-[4-fluoro-2-(2-methyl-5-propan-2-ylpyrazol-3-yl)oxyphenyl]pyrimidin-5-yl]methanamine], the IC50 was less than 10 nM. Molecule CC(C)c1cc(Oc2cc(F)ccc2-c2ncc(CCN)cn2)n(C)n1 [compound 1013, 2-[2-[4-fluoro-2-(2-methyl-5-propan-2-ylpyrazol-3-yl)oxyphenyl]pyrimidin-5-yl]ethanamine] has an IC50 of less than 10 nM. In the case of CC(C)c1cc(Oc2cc(F)ccc2-c2ccc(CCN)cn2)n(C)n1 [compound 1014, 2-[6-[4-fluoro-2-(2-methyl-5-propan-2-ylpyrazol-3-yl)oxyphenyl]pyridin-3-yl]ethanamine], the IC50 is reported as less than 10 nM. Molecule Cn1nc(C2CC2)cc1Oc1cc(F)ccc1-c1ncc(CN)cn1 [compound 1015, [2-[2-(5-cyclopropyl-2-methylpyrazol-3-yl)oxy-4-fluorophenyl]pyrimidin-5-yl]methanamine] has an IC50 of 10 to 1000 nM. With Cn1nc(C2CC2)cc1Oc1cc(F)ccc1-c1ccc(CN)cn1 [compound 1016, [6-[2-(5-cyclopropyl-2-methylpyrazol-3-yl)oxy-4-fluorophenyl]pyridin-3 - yl]methanamine] the IC50 was 10 to 1000 nM. For Cn1nc(C2CC2)cc1Oc1cc(F)ccc1-c1ncc(CCN)cn1 [compound 1017, 2-[2-[2-(5-cyclopropyl-2-methylpyrazol-3-yl)oxy-4-fluorophenyl]pyrimidin-5-yl]ethanamine], the IC50 was less than 10 nM. For Cn1nc(C2CC2)cc1Oc1cc(F)ccc1-c1ccc(CCN)cn1 [compound 1018, 2-[6-[2-(5-cyclopropyl-2-methylpyrazol-3-yl)oxy-4-fluorophenyl]pyridin-3-yl]ethanamine], the IC50 was less than 10 nM. Molecule NCCc1cnc(-c2ccc(F)cc2Oc2cnn(CC(F)(F)F)c2)nc1 [compound 1019, 2-[2-[4-fluoro-2-[1-(2,2,2-trifluoroethyl)pyrazol-4-yl]oxyphenyl]pyrimidin-5-yl]ethanamine] has an IC50 of 10 to 1000 nM. Molecule CC(C)n1cc(Oc2cc(Cl)ccc2-c2ncc(CCN)cn2)cn1 [compound 1020, 2-[2-[4-chloro-2-(1-propan-2-ylpyrazol-4-yl)oxyphenyl]pyrimidin-5-yl]ethanamine] has an IC50 of 10 to 1000 nM. CC(C)Cn1cc(Oc2cc(Cl)ccc2-c2ncc(CCN)cn2)cn1 [compound 1021, 2-[2-[4-chloro-2-[1-(2-methylpropyl)pyrazol-4-yl]oxyphenyl]pyrimidin-5-yl]ethanamine] gave an IC50 of 10 to 1000 nM. NCCc1cnc(-c2ccc(Cl)cc2Oc2cnn(CC(F)F)c2)nc1 [compound 1022, 2-[2-[4-chloro-2-[1-(2,2-difluoroethyl)pyrazol-4-yl]oxyphenyl]pyrimidin-5-yl]ethanamine] was tested, and the IC50 was greater than 1000 nM. Molecule NCCc1cnc(-c2ccc(Cl)cc2Oc2cnn(CC(F)(F)F)c2)nc1 [compound 1023, 2-[2-[4-chloro-2-[1-(2,2,2-trifluoroethyl)pyrazol-4-yl]oxyphenyl]pyrimidin-5-yl]ethanamine] has an IC50 of 10 to 1000 nM. NCCc1cnc(-c2ccc(Cl)cc2Oc2cnn(-c3ccccn3)c2)nc1 [compound 1024, 2-[2-[4-chloro-2-(1-pyridin-2-ylpyrazol-4-yl)oxyphenyl]pyrimidin-5-yl]ethanamine] gave an IC50 of 10 to 1000 nM. For CCc1cc(C(=O)c2cc(C#N)ccc2-c2ncc(CCN)cn2)n(C)n1 [compound 1025, 4-[5-(2-aminoethyl)pyrimidin-2-yl]-3-(5-ethyl-2-methylpyrazole-3-carbonyl)benzonitrile], the IC50 was less than 10 nM. CCc1cc(C(=O)c2cc(C#N)ccc2-c2ncc(CN)cn2)n(C)n1 [compound 1026, 4-[5-(aminomethyl)pyrimidin-2-yl]-3-(5-ethyl-2-methylpyrazole-3-carbonyl)benzonitrile] gave an IC50 of less than 10 nM. Cn1nc(N2CCOCC2)cc1C(=O)c1cc(C#N)ccc1-c1ncc(CCN)cn1 [compound 1027, 4-[5-(2-aminoethyl)pyrimidin-2-yl]-3-(2-methyl-5-morpholin-4-ylpyrazole-3-carbonyl)benzonitrile] gave an IC50 of less than 10 nM.
